Test results: ChEMBL document CHEMBL5532635, “The role of natural anti-parasitic guided development of synthetic drugs for leishmaniasis” (Eur J Med Chem, 2023)
In brackets after ≈: the same amount, converted by molar mass.

Columns and labels:
[1] = test system: Leishmania donovani; assay: Antileishmanial activity against Leishmania donovani promastigotes at 50 uM; type: functional
[2] = test system: Leishmania donovani; assay: Antileishmanial activity against Leishmania donovani promastigotes at 25 uM; type: functional
[3] = test system: Leishmania donovani; assay: Immunosuppressive activity in Leishmania donovani assessed as inhibition of PGE2 production; type: functional, organism-based
[4] = test system: Leishmania donovani; assay: Antileishmanial activity against Leishmania donovani promastigotes assessed as reduction in parasite growth incubated for 72 hrs by MTT assay; type: functional, organism-based
[5] = test system: Leishmania amazonensis; assay: Antileishmanial activity against Leishmania amazonensis amastigotes assessed as reduction in parasite growth measured after 24 hrs by MTT assay; type: functional, organism-based
[6] = test system: Leishmania amazonensis; assay: Antileishmanial activity against Leishmania amazonensis MHOM/BR/71973/M2269 promastigotes assessed as reduction in parasite growth incubated for 24 hrs by PI staining based flow cytometry analysis; type: functional, organism-based; conditions: MHOM/BR/71973/M2269, 24 h
[7] = test system: Leishmania infantum; assay: Antileishmanial activity against Leishmania infantum MHOM/BR/1972/BH46 promastigotes assessed as reduction in parasite growth incubated for 24 hrs by PI staining based flow cytometry analysis; type: functional, organism-based; conditions: MHOM/BR/1972/BH46, 24 h
[8] = test system: Leishmania amazonensis; assay: Antileishmanial activity against Leishmania amazonensis promastigotes assessed as inhibition of parasite growth measured after 72 hrs by alamar blue assay; type: functional, organism-based
[9] = test system: Leishmania infantum; assay: Antileishmanial activity against Leishmania infantum MCAN/ES/89/IPZ229/1/89 promastigote measured after 72 hrs by MTT assay; type: functional, organism-based; conditions: MCAN/ES/89/IPZ229/1/89, 72 h
[10] = test system: Leishmania donovani; assay: Antileishmanial activity against Leishmania donovani intracellular amastigotes assessed as parasite growth inhibition; type: functional, organism-based
[11] = Antileishmanial activity against Leishmania donovani MHOM/IN/95/9515 promastigotes assessed as inhibition of parasite viability incubated for 72 hrs by resazurin/alamar blue fluorometric assay; type: functional
[12] = test system: Leishmania infantum; assay: Antileishmanial activity against Leishmania infantum MCAN/ES/89/IPZ229/1/89 axenic amastigotes assessed as reduction in parasite viability treated for 24 hrs by PI staining based flow cytometry; type: functional, organism-based; conditions: MCAN/ES/89/IPZ229/1/89, 24 h
[13] = target: Arginase (Leishmania amazonensis, UniProt O96394); assay: Inhibition of Leishmania amazonensis Arginase expressed in Escherichia coli BL21 (DE3)
[14] = test system: Leishmania major; assay: Antileishmanial activity against Leishmania major promastigotes incubated for 24 hrs measured by alamar blue staining based fluorescence analysis; type: functional, organism-based
[15] = test system: Leishmania donovani; assay: Antileishmanial activity against Leishmania donovani amastigotes; type: functional, organism-based
[16] = test system: Leishmania donovani; assay: Antileishmanial activity against Leishmania donovani promastigotes; type: functional, organism-based
[17] = Inhibition of recombinant Leishmania mexicana Trypanothione reductase
[18] = test system: Leishmania major; assay: Antileishmanial activity against Leishmania major IR-173 promastigotes assessed as inhibition of parasite viability incubated for 72 hrs by resazurin/alamar blue fluorometric assay; type: functional

**Q.** What does the source list for COc1ccc2c(c1)O/C(=C/c1cc(O)cc(O)c1)C2=O?
**A.** Activity [1]: 108%; Activity [2]: 105%; IC50 [3]: 5.9 µM

**Q.** Which IC50 [4] does the source give for CCOC(=O)C1=CNC(=S)NC1c1ccc(C)cc1 (stereo not drawn) here?
**A.** Its IC50 is 28.3 µg/mL (≈ 102 µM).

**Q.** Which IC50 [5] does the source give for CCCc1cc(OC)c2oc(=O)c(C(=O)c3ccc([N+](=O)[O-])cc3)cc2c1 here?
**A.** The IC50 was 18 µM.

**Q.** What about the IC50 [6] of the same compound?
**A.** The IC50 was 26.7 µM.

**Q.** And the IC50 [7]?
**A.** Its IC50 is 3.53 µM.

**Q.** And the IC50 [8]?
**A.** Its IC50 is 18 µM.

**Q.** And the IC50 [9]?
**A.** Its IC50 is 6.8 µM.

**Q.** Which IC50 [10] does the source give for CCCCCCCCNCc1ccc2c(c1)C(=O)CC(C)(C)O2 here?
**A.** The IC50 was 24.6 µM.

**Q.** With O=C(Cn1cnc2cc(Cl)ccc2c1=O)n1cnc2cc(Cl)ccc2c1=O as the compound, how does the Activity [11] read?
**A.** The Activity was 29%.

**Q.** Which IC50 [12] does the source give for Cn1c(=O)c2c(c3ccccc31)OC(C)(C)[C@H]1CC[C@@](C)(O)[C@H](Cl)[C@H]21 here?
**A.** Its IC50 is > 6.25 µM.

**Q.** With O=C(CCc1ccc(O)c(O)c1)O[C@H](Cc1ccc(O)cc1)C(=O)O as the compound, how does the IC50 [13] read?
**A.** Its IC50 is 5.5 µM.

**Q.** For CCOC(=O)C1=C(C)NC(C)=C(C(=O)OCC)C1c1cccc(Cl)c1, which EC50 [14] is on record?
**A.** The EC50 was 15.5 µM.

**Q.** Which EC50 [15] does the source give for O=C1/C(=C/c2ccc(O)c(O)c2)Oc2cc(O)ccc21 [SULFURETIN] here?
**A.** The EC50 was 330 nM.

**Q.** And the EC50 [16]?
**A.** The EC50 was 4.58 µM.

**Q.** Which IC50 [17] does the source give for C[C@H]1[C@H](C)CC[C@]2(C(=O)O)CC[C@]3(C)C(=CC[C@@H]4[C@@]5(C)CC[C@H](O)C(C)(C)[C@@H]5CC[C@]43C)[C@H]12 [URSOLIC ACID] here?
**A.** Its IC50 is 7.03 µM.

**Q.** With O=C(Cn1cnc2ccccc2c1=O)N1CCC2(CC1)OCCO2 as the compound, how does the Activity [18] read?
**A.** The Activity was 35%.
